This is an account of results in patent publication US12558428B2, “Heterobifunctional compounds and their use in treating disease” (Halda Therapeutics OpCo, Inc., priority 2024, dated 2026).

Structures are written as SMILES.

Assay type in all cases: cell-based
Assay [1] relates to T-Rex 293 cells lacking increased expression of estrogen receptor alpha protein. Description: Cellular growth inhibition assay, T-Rex 293 cells, (−) doxycycline. Conditions: T-REx-293, 72 h, Table 7-A; T-Rex 293 cells without doxycycline (lacking increased ERα expression); 72 hours; CellTiter-Glo; read-out: (−) Dox GI50. The procedure, abridged: (§1)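 Cells of an inducible ERα-expressing T-Rex 293 clone are seeded in charcoal-dextran FBS medium with or without 3 ng/mL doxycycline, then treated after 24 h with compound dilutions (0.5% DMSO) for 72 h. Growth inhibition is measured by CellTiter-Glo luminescence and expressed as GI50.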
(In ATP-based viability assays light output follows the ATP content of the culture.)

Assay [2] relates to T-Rex 293 cells having increased expression of estrogen receptor alpha protein. Nature of the assay: Cellular growth inhibition assay, T-Rex 293 cells, (+) doxycycline. Conditions: T-REx-293, 72 h, Table 7-A; T-Rex 293 cells with doxycycline (increased ERα expression); 72 hours; CellTiter-Glo; read-out: (+) Dox GI50. The procedure, abridged: as §1
The test system of assay [3] is MCF7 cells (ATCC #HTB-22). Description: Cellular growth inhibition assay, MCF7 cells purchased from ATCC. Conditions: Homo sapiens, MCF7, 144 h, Table 8-A; MCF7 cells purchased from ATCC; six days; CellTiter-Glo; read-out: GI50. The procedure, abridged: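 GI50 values come from a four-parameter fit of CellTiter-Glo 2.0 luminescence after six days of compound exposure at 37° C. Seeding density depended on the source: 225 cells/well for ECACC MCF7, 1,500 for ATCC. Medium was RPMI 1640 with 10% FBS and 0.2 U/ml insulin.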

A word on the GI50: it is the concentration giving 50% growth inhibition. Turning to `Cc1sc2c(c1C)C(c1ccc(N3CCC4(CC3)CN(CCOc3ccc([C@@H]5c6ccc(O)cc6CC[C@@H]5c5ccccc5)cc3)C4)cc1)=N[C@@H](C)c1nnc(C)n1-2` [III-78], the GI50 in assay [1], in assay [2] and in assay [3] was 50 to 500 nM throughout.

Turning to `Cc1sc2c(c1C)C(c1ccc(N3CCC4(CC3)CN(CCOc3ccc([C@H]5c6ccc(O)cc6CC[C@H]5c5ccccc5)cc3)C4)cc1)=N[C@@H](C)c1nnc(C)n1-2` [III-79], the concentration for 50% growth inhibition (GI50) in assay [1], in assay [2] and in assay [3] was 50 to 500 nM throughout.

For `Cc1sc2c(c1C)C(c1ccc(N3CCN(CCC4CN(c5ccc([C@@H]6c7ccc(O)cc7CC[C@@H]6c6ccccc6)cc5)C4)CC3)cc1)=N[C@@H](C)c1nnc(C)n1-2` [III-80], the concentration for 50% growth inhibition (GI50) in assay [1] is 500 to 2500 nM; in assay [2], 50 to 500 nM; in assay [3], more than 2500 nM.

With `Cc1sc2c(c1C)C(c1ccc(N3CCN(CC4CCN(c5ccc([C@@H]6c7ccc(O)cc7CC[C@@H]6c6ccccc6)cc5)CC4)CC3)cc1)=N[C@@H](CC(=O)O)c1nnc(C)n1-2` [III-81], the GI50 in assay [1] was more than 2500 nM; in assay [2] it was 50 to 500 nM; in assay [3], 50 to 500 nM.

Take `Cc1sc2c(c1C)C(c1ccc(C34COC(CN5CCN(c6ccc([C@@H]7c8ccc(O)cc8CC[C@@H]7c7ccccc7)cc6)CC5)(C3)C4)cc1)=N[C@@H](C)c1nnc(C)n1-2` [III-82]: the concentration for 50% growth inhibition (GI50) in assay [1] is 500 to 2500 nM; in assay [2] it was 50 to 500 nM; in assay [3], 50 to 500 nM.

For `Cc1sc2c(c1C)C(c1ccc(C34COC(CN5CCN(c6ccc([C@H]7c8ccc(O)cc8CC[C@H]7c7ccccc7)cc6)CC5)(C3)C4)cc1)=N[C@@H](C)c1nnc(C)n1-2` [III-83], the 50% growth inhibitory concentration (GI50) in assay [1] was in the range of 500 to 2500 nM; in assay [2] it was 50 to 500 nM; in assay [3], 50 to 500 nM.

Consider `Cc1sc2c(c1C)C(c1ccc(N3CC(CCN4CC(COc5ccc([C@@H]6c7ccc(O)cc7CC[C@@H]6c6ccccc6)cc5)C4)C3)cc1)=N[C@@H](C)c1nnc(C)n1-2` [III-84], for which the GI50 in assay [1] is 500 to 2500 nM; in assay [2] it was less than 50 nM; in assay [3], 50 to 500 nM.

As for `Cc1sc2c(c1C)C(c1ccc(N3CC(CCN4CC(COc5ccc([C@H]6c7ccc(O)cc7CC[C@H]6c6ccccc6)cc5)C4)C3)cc1)=N[C@@H](C)c1nnc(C)n1-2` [III-85], the concentration for 50% growth inhibition (GI50) in assay [1] lay within 500 to 2500 nM; in assay [2] it was 50 to 500 nM; in assay [3], 50 to 500 nM.

As to `Cc1sc2c(c1C)C(c1ccc(OC3CCN(CC4CCN(c5ccc([C@@H]6c7ccc(O)cc7CC[C@@H]6c6ccccc6)cc5)CC4)CC3)cc1)=N[C@@H](C)c1nnc(C)n1-2` [III-86], the values for the GI50 in assay [1], in assay [2] and in assay [3] were 500 to 2500 nM, 50 to 500 nM and 50 to 500 nM, respectively.

As to `Cc1sc2c(c1C)C(c1ccc(N3CCC(CN4CC5(CCN(c6ccc([C@@H]7c8ccc(O)cc8CC[C@@H]7c7ccccc7)cc6)CC5)C4)CC3)cc1)=N[C@@H](C)c1nnc(C)n1-2` [III-87], the results for the concentration for 50% growth inhibition (GI50) in assay [1], in assay [2] and in assay [3] were 50 to 500 nM, less than 50 nM and less than 50 nM, respectively.

Take `Cc1sc2c(c1C)C(c1ccc(N3CCC4(CC3)CN(CC3CCN(c5ccc([C@@H]6c7ccc(O)cc7CC[C@@H]6c6ccccc6)cc5)CC3)C4)cc1)=N[C@@H](C)c1nnc(C)n1-2` [III-88]: the results for the GI50 in assay [1], in assay [2] and in assay [3] were 50 to 500 nM, less than 50 nM and less than 50 nM, respectively.

As to `Cc1sc2c(c1C)C(c1ccc(N3CC(CN4CCN(c5ccc([C@@H]6c7ccc(O)cc7CC[C@@H]6c6ccccc6)cc5)CC4)C3)cc1)=N[C@@H](C)c1nnc(C)n1-2` [III-89], the concentration for 50% growth inhibition (GI50) is 500 to 2500 nM in assay [1], less than 50 nM in assay [2] and 50 to 500 nM in assay [3].

As to `Cc1sc2c(c1C)C(c1ccc(OC3CC4(CCN(c5ccc([C@@H]6c7ccc(O)cc7CC[C@@H]6c6ccccc6)cc5)CC4)C3)cc1)=N[C@@H](C)c1nnc(C)n1-2` [III-90], the results for the concentration for 50% growth inhibition (GI50) in assay [1], in assay [2] and in assay [3] were more than 2500 nM, 500 to 2500 nM and 50 to 500 nM, respectively.

Turning to `Cc1sc2c(c1C)C(c1ccc(N3CCC(CN4CC(COc5ccc([C@@H]6c7ccc(O)cc7CC[C@@H]6c6ccccc6)cc5)C4)CC3)cc1)=N[C@@H](Cc1ncco1)c1nnc(C)n1-2` [III-91], the 50% growth inhibitory concentration (GI50) in assay [1] was 500 to 2500 nM; in assay [2], 50 to 500 nM; in assay [3], less than 50 nM.

On to `Cc1sc2c(c1C)C(c1ccc(N3CCC(CN4CC(COc5ccc([C@H]6c7ccc(O)cc7CC[C@H]6c6ccccc6)cc5)C4)CC3)cc1)=N[C@@H](Cc1ncco1)c1nnc(C)n1-2` [III-92], for which the 50% growth inhibitory concentration (GI50) in assay [1], in assay [2] and in assay [3] was 50 to 500 nM throughout.

Turning to `Cc1sc2c(c1C)C(c1ccc(C3CN(CCN4CC(COc5ccc([C@@H]6c7ccc(O)cc7CC[C@@H]6c6ccccc6)cc5)C4)C3)cc1)=N[C@@H](C)c1nnc(C)n1-2` [III-95], the GI50 in assay [1] was 50 to 500 nM; in assay [2] it was less than 50 nM; in assay [3] it was less than 50 nM.

With `Cc1sc2c(c1C)C(c1ccc(C3CN(CCN4CC(COc5ccc([C@H]6c7ccc(O)cc7CC[C@H]6c6ccccc6)cc5)C4)C3)cc1)=N[C@@H](C)c1nnc(C)n1-2` [III-96], the GI50 in assay [1], in assay [2] and in assay [3] was 50 to 500 nM in each case.

Take `Cc1sc2c(c1C)C(c1ccc(N3CC4(CN(CC5CCN(c6ccc([C@@H]7c8ccc(O)cc8CC[C@@H]7c7ccccc7)cc6)CC5)C4)C3)cc1)=N[C@@H](C)c1nnc(C)n1-2` [III-97]: the figures for the 50% growth inhibitory concentration (GI50) in assay [1], in assay [2] and in assay [3] were 500 to 2500 nM, less than 50 nM and less than 50 nM, respectively.

For the compound `Cc1sc2c(c1C)C(c1ccc(CCN3CC4(CCN(c5ccc([C@@H]6c7ccc(O)cc7CC[C@@H]6c6ccccc6)cc5)CC4)C3)cc1)=N[C@@H](C)c1nnc(C)n1-2` [III-98], the values for the GI50 in assay [1], in assay [2] and in assay [3] were 500 to 2500 nM, less than 50 nM and 50 to 500 nM, respectively.

Regarding `Cc1sc2c(c1C)C(c1ccc(N3CC(CN4CC(Oc5ccc([C@@H]6c7ccc(O)cc7CC[C@@H]6c6ccccc6)cc5)C4)C3)cc1)=N[C@@H](C)c1nnc(C)n1-2` [III-99], the GI50 in assay [1], in assay [2] and in assay [3] was 50 to 500 nM each time.

Consider `Cc1sc2c(c1C)C(c1ccc(N3CC(CN4CC(Oc5ccc([C@H]6c7ccc(O)cc7CC[C@H]6c6ccccc6)cc5)C4)C3)cc1)=N[C@@H](C)c1nnc(C)n1-2` [III-100], for which the GI50 in assay [1], in assay [2] and in assay [3] was 50 to 500 nM in each case.

As to `Cc1sc2c(c1C)C(c1ccc(N3CC(CN4CC(COc5ccc([C@@H]6c7ccc(O)cc7CC[C@@H]6c6ccccc6)cc5)C4)C3)cc1)=N[C@@H](C)c1nnc(C)n1-2` [III-101], the concentration for 50% growth inhibition (GI50) is 50 to 500 nM in assay [1], less than 50 nM in assay [2] and 50 to 500 nM in assay [3].

As for `Cc1sc2c(c1C)C(c1ccc(N3CC(CN4CC(COc5ccc([C@H]6c7ccc(O)cc7CC[C@H]6c6ccccc6)cc5)C4)C3)cc1)=N[C@@H](C)c1nnc(C)n1-2` [III-102], the concentration for 50% growth inhibition (GI50) in assay [1], in assay [2] and in assay [3] was 50 to 500 nM throughout.

Take `Cc1sc2c(c1C)C(c1ccc(NCCN3CCN(CCOc4ccc([C@@H]5c6ccc(O)cc6CC[C@@H]5c5ccccc5)cc4)CC3)cc1)=N[C@@H](Cc1ncco1)c1nnc(C)n1-2` [III-103]: the GI50 in assay [1] is 50 to 500 nM; in assay [2], less than 50 nM; in assay [3] it was less than 50 nM.

As to `Cc1sc2c(c1C)C(c1ccc(NCCN3CCN(CCOc4ccc([C@H]5c6ccc(O)cc6CC[C@H]5c5ccccc5)cc4)CC3)cc1)=N[C@@H](Cc1ncco1)c1nnc(C)n1-2` [III-104], the GI50 was 50 to 500 nM in assay [1], less than 50 nM in assay [2] and less than 50 nM in assay [3].

Turning to `Cc1sc2c(c1C)C(c1ccc(N3CCC(N4CCN(CCOc5ccc([C@@H]6c7ccc(O)cc7CC[C@@H]6c6ccccc6)cc5)CC4)CC3)cc1)=N[C@@H](Cc1ncco1)c1nnc(C)n1-2` [III-105], the GI50 in assay [1] was 50 to 500 nM; in assay [2], less than 50 nM; in assay [3], less than 50 nM.

`Cc1sc2c(c1C)C(c1ccc(N3CC(CN4CCC(COc5ccc([C@@H]6c7ccc(O)cc7CC[C@@H]6c6ccccc6)cc5)CC4)C3)cc1)=N[C@@H](C)c1nnc(C)n1-2` [III-106]: the concentration for 50% growth inhibition (GI50) was 500 to 2500 nM in assay [1], less than 50 nM in assay [2] and 50 to 500 nM in assay [3].

As for `Cc1sc2c(c1C)C(c1ccc(CN3CC4(CCN(c5ccc([C@@H]6c7ccc(O)cc7CC[C@@H]6c6ccccc6)cc5)CC4)C3)cc1)=N[C@@H](C)c1nnc(C)n1-2` [III-107], the values for the GI50 in assay [1], in assay [2] and in assay [3] were 500 to 2500 nM, 50 to 500 nM and 50 to 500 nM, respectively.

For `Cc1sc2c(c1C)C(c1ccc(N3CCC4(CC3)CN(CC3CN(c5ccc([C@@H]6c7ccc(O)cc7CC[C@@H]6c6ccccc6)cc5)C3)C4)cc1)=N[C@@H](C)c1nnc(C)n1-2` [III-108], the GI50 in assay [1] was 50 to 500 nM; in assay [2] it was less than 50 nM; in assay [3], less than 50 nM.

Take `Cc1sc2c(c1C)C(c1ccc(OCCN3CCN(CCOc4ccc([C@@H]5c6ccc(O)cc6CC[C@@H]5c5ccccc5)cc4)CC3)cc1)=N[C@@H](Cc1ncco1)c1nnc(C)n1-2` [III-109]: the GI50 is 50 to 500 nM in assay [1], less than 50 nM in assay [2] and 50 to 500 nM in assay [3].

For `Cc1sc2c(c1C)C(c1ccc(OCCN3CCN(CCOc4ccc([C@H]5c6ccc(O)cc6CC[C@H]5c5ccccc5)cc4)CC3)cc1)=N[C@@H](Cc1ncco1)c1nnc(C)n1-2` [III-110], the 50% growth inhibitory concentration (GI50) in assay [1], in assay [2] and in assay [3] was less than 50 nM each time.
